Experiments:
Type in all cases: cell-based
HSP70 protein level [1] = test: HSP70 ELISA (Enzo kit), normal human dermal fibroblasts, 24 h treatment; conditions: 0.01%, HDF cells, FIG. 4
Experimental: (§1) Normal human dermal fibroblasts (Cascade Biologics) were seeded into four wells of a six well plate (5.0×10^5 cells/well) and cultured overnight. The following day, cells were replenished with fresh media and test compositions were added. The test compositions including their control for each formulation: […]
(§2) Following 24 hours of treatment, the cells were lysed and the HSP70 protein level was measured using an ELISA kit (available from Enzo Life Sciences). Cells were lysed using the lysis buffer provided with the kit. The amount of proteins for each sample was calculated using the standard curve.
The assay was performed in triplicate for each sample and the values represent mean±S.D. (standard deviation).

HSP70 protein level [2] = test: HSP70 ELISA (Abcam kit), full thickness human 3D skin cultures (MatTek), 24 h treatment; conditions: 1% by weight, skin 3-D tissues, FIG. 6
Experimental: A series of experiments was conducted to assess the effects of various treatments with HSP70 inducers on full thickness 3D skin cultures. Human 3D skin (MatTek, Mass.) were cultured following the manufacturer's instructions overnight. The following day, tissues were replenished with fresh media and then compositions comprising various potential actives were added. Following 24 hours of treatment, the tissues were lysed and the HSP70 protein level was measured using an ELISA kit (available from Abcam). The amount of the proteins was calculated according to the standard curve. For these measurements, the test materials were formulated in control at 1% by weight of the composition or at 0.04% by weight of the composition (Arnica montana, rosemary, black cohosh, turmeric, chamomile, aloe, horse chestnut, linseed, grapeseed, argan oil, gromwell, marjoram, sage, lauric acid, butyric acid) or they were formulated in control at 0.04% by weight of the composition (licorice, tetrahydrocurcumin (THC), olive leaf, milk thistle, glutamate).
The results are shown in FIG. 6 as the measured amount of HSP70 proteins/μg total protein for each sample. Samples labeled with “*” indicate a p value compared to the control of less than 0.05.

HSP70 protein level [3] = test: HSP70 ELISA (Abcam kit), normal human dermal fibroblasts, 24 h treatment; conditions: for stimulation of HSP70 protein level as compared to control: HDF cells, FIG. 5; for HSP70 induction value (Control = 1): normal human dermal fibroblasts, FIG. 3
Experimental: Normal human dermal fibroblasts were cultured in 6-well tissue culture treated plates. Cells were treated with test material (agent/compound) at the concentrations indicated, or with respective vehicle control diluted in growth medium, for 24 hours in a humidified 37° C. incubator with 5% CO2. After incubation, growth medium from each plate was removed and cells were lysed. HSP70 protein level in the cells was determined by a commercially available ELISA kit (Abcam, Cambridge, Mass.). In FIG. 3, Control induction value=1; shikonin (1 μM concentration) induction value=1.7; Arnica Montana (0.003% concentration) induction value=1.86; resveratrol (0.003% concentration) induction value=1.47; and G. T. polyphenol (0.003% concentration) induction value=1.24.
as §1, with “Similar experimentation on other HSP70 inducers was performed using an HSP70 ELISA kit (available from Abcam; cat. # ab133060). Briefly, normal” for “Normal”
as §2, with “The active ingredient was formulated in the ethanol:water control. Following” for “Following”, “Abcam).” for “Enzo Life Sciences).”
The assay was performed in triplicate for each sample and the values represent mean±S.D. (standard deviation). Samples labeled with “*” indicate a p value compared to the control of less than 0.05.

Compound | stimulation of HSP70 protein level as compared to control (HSP70 protein level [3]; 0.003%) [%] | HSP70 induction value (Control = 1) (HSP70 protein level [3]; 0.003%) | further results
C=C(C)[C@@H]1CCC(C)=C[C@H]1c1c(O)cc(CCCCC)cc1O [CBD, cannabidiol] |  |  | stimulation of HSP70 protein level compared to its control (HSP70 protein level [1]): 189%
CCCC(=O)O [butyric acid] |  |  | stimulation of HSP70 protein levels as compared to control (HSP70 protein level [2]): 248%
Oc1ccc(/C=C/c2cc(O)cc(O)c2)cc1 [resveratrol, trans-3,5,4′-trihydroxystilbene] | 147 | 1.47 | 
CC(C)=CC[C@@H](O)C1=CC(=O)c2c(O)ccc(O)c2C1=O [shikonin] |  |  | stimulation of HSP70 protein level as compared to control (HSP70 protein level [3]; 1 μM): 170%; HSP70 induction value (Control = 1) (HSP70 protein level [3]; 1 μM): 1.7
epigallocatechin-3-gallate [G. T. polyphenol] | 124 | 1.24 | 
